# Measurements as given in patent US8163766B2, “Beta-secretase modulators and methods of use” (Amgen Inc., priority 2005, dated 2012).
# System: Aβ 40 in conditioned media of cells stably expressing Amyloid Precursor Protein (APP)
# Experiment: BACE Cell-Based Assay (Aβ40 in conditioned medium, sandwich ELISA)
# Details: 24 hours of incubation with the test compounds, Aβ 40 by sandwich ELISA, read-out: IC50 values in the cell-based assay (inhibition of Aβ 40)
# How it was run: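 APP-stably-expressing cells in DMEM/10% FBS exposed 24 h to 10-point compound dilutions starting at 100 or 10 μM, 0.1% DMSO final. Aβ40 in conditioned medium measured by sandwich ELISA (pAb40 capture, biotinylated 6E10 detection, Eu time-resolved fluorescence); IC50 from percent inhibition versus concentration.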
row,IC50,SMILES
1,≤ 5 µM,"O=C1CC[C@@H](C(=O)N[C@@H](Cc2ccccc2)[C@H](O)CN[C@H]2CC3(CCC3)Oc3ccc(N4CCOCC4)cc32)O1 [Example 528, (2S)-N-((1S,2R)-2-hydroxy-3-(((4S)-6-(4-morpholinyl)-3,4-dihydrospiro[chromene-2,1′-cyclobutan]-4-yl)amino)-1-(phenylmethyl)propyl)-5-oxotetrahydro-2-furancarboxamide]"
2,≤ 5 µM,"O=C1CC[C@H](C(=O)N[C@@H](Cc2ccccc2)[C@H](O)CN[C@H]2CC3(CCC3)Oc3ccc(N4CCOCC4)cc32)O1 [Example 529, (2R)-N-((1S,2R)-2-hydroxy-3-(((4S)-6-(4-morpholinyl)-3,4-dihydrospiro[chromene-2,1′-cyclobutan]-4-yl)amino)-1-(phenylmethyl)propyl)-5-oxotetrahydro-2-furancarboxamide]"
